Laboratory results published in PubChem BioAssay (NCI).
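Where inhibition never reached the appropriate level, the endpoint shown equals the highest concentration tested. Otherwise, values were interpolated linearly from a five-concentration, 48-hour dose response in 96-well plates. Here, GI50 denotes the concentration required for 50% inhibition of growth. TGI: concentration producing complete growth inhibition.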

Tests used:
Experiment in all cases: inhibition of tumour cell growth, NCI panel, 48 h
NCI-H522 lung = test system: NCI-H522 lung
T-47D breast = test system: T-47D breast
786-0 renal = test system: 786-0 renal
MDA-N = test system: MDA-N
EKVX NSCLC = test system: EKVX NSCLC
CCRF-CEM leukemia = test system: CCRF-CEM leukemia
SK-MEL-2 melanoma = test system: SK-MEL-2 melanoma
SNB-19 CNS = test system: SNB-19 CNS
SNB-78 CNS = test system: SNB-78 CNS
RXF-631 renal = test system: RXF-631 renal
XF 498 CNS = test system: XF 498 CNS
M19-MEL melanoma = test system: M19-MEL melanoma
DMS 114 small cell lung = test system: DMS 114 small cell lung
DMS 273 small cell lung = test system: DMS 273 small cell lung
HOP-18 NSCLC = test system: HOP-18 NSCLC

SMILES | TGI (NCI-H522 lung) [µM] | TGI (T-47D breast) [µM] | TGI (786-0 renal) [µM] | TGI (MDA-N) [µM] | TGI (EKVX NSCLC) [µM] | TGI (CCRF-CEM leukemia) [µM] | TGI (SK-MEL-2 melanoma) [µM] | TGI (SNB-19 CNS) [µM] | TGI (SNB-78 CNS) [µM] | TGI (RXF-631 renal) [µM] | TGI (XF 498 CNS) [µM] | TGI (M19-MEL melanoma) [µM] | TGI (DMS 114 small cell lung) [µM] | TGI (DMS 273 small cell lung) [µM] | TGI (HOP-18 NSCLC) [µM] | GI50 (CCRF-CEM leukemia) [µM] | GI50 (T-47D breast) [µM] | GI50 (EKVX NSCLC) [µM] | GI50 (SK-MEL-2 melanoma) [µM] | GI50 (SNB-19 CNS) [µM]
O=C(O)C(O)C(O)C(O)C(=O)CO (stereo unspecified) | > 100 | > 100 | > 100 | > 100 | > 100 | > 100 | > 100 | > 100 | – | – | – | – | – | – | – | – | – | – | – | –
Nc1ccc(-c2nc3cc(F)ccc3s2)cc1CO | > 100 | > 100 | > 100 | > 100 | > 100 | > 100 | > 62.9 | > 90.6 | – | – | – | – | – | – | – | – | – | – | – | –
O=S(=O)(O)c1cc(N=[N+]([O-])c2cc(S(=O)(=O)O)c3ccccc3c2)cc2ccccc12 | 65.9 | > 100 | > 100 | 41.7 | > 100 | > 100 | 66.1 | > 100 | – | – | – | – | – | – | – | – | – | – | – | –
Cc1ccccc1NC(=O)CC(=O)N1N=C(N2c3ccccc3Sc3ccccc32)CC1c1ccccc1 (stereo unspecified) | – | – | – | – | > 100 | – | – | > 100 | > 100 | > 100 | > 100 | > 100 | > 100 | > 100 | – | – | – | – | – | –
O=C1/C(=C\c2ccc(F)cc2)CCOc2c1ccc1ccccc21 | > 100 | > 100 | 62.5 | – | > 100 | 35.9 | > 100 | > 100 | – | – | – | – | – | – | – | – | – | – | – | –
COc1ccc(C2c3cc4c(cc3OC(O)(CO)C2C(=O)O)OCO4)cc1 (stereo unspecified) (tested in a mixture with another compound) | – | – | – | – | 88 | 55.5 | 71.8 | – | 59 | 42.9 | 16.6 | 21.3 | 61.3 | 17.7 | > 100 | – | – | – | – | –
O=c1[nH]c(Nc2ccc(Cl)cc2)nc2nc[nH]c12 | > 100 | > 100 | > 100 | – | > 100 | – | > 100 | > 100 | – | – | – | – | – | – | – | – | – | – | – | –
C1=CC(=[N+]2N=C(c3ccccc3)CC2c2ccccc2)C=CC1=C1SC(c2ccccc2)(c2ccccc2)c2ccccc21 (stereo unspecified) | – | > 100 | > 100 | > 100 | > 100 | > 100 | > 100 | > 100 | – | – | – | – | – | – | – | – | – | – | – | –
O=C1c2ccccc2C(C2c3ccccc3C(=O)c3cc(Br)ccc32)c2ccc(Br)cc21 (stereo unspecified) | > 100 | > 100 | > 100 | > 100 | > 100 | – | – | > 100 | – | – | – | – | – | – | – | – | – | – | – | –
CC(C)C1OC(=O)/C=C/C=C/C=C/C=C/C=C/CC(O)C(C)C(O)CC(O)CC(O)CC(O)CC(O)CC(O)CC(O)/C=C/C1C (stereo unspecified) | > 100 | – | – | – | > 100 | > 100 | > 100 | > 100 | – | – | – | – | – | – | – | 5.11 | – | – | – | –
CSCCC(NC(=O)OCc1ccccc1)P(=O)(O)c1ccccc1 (stereo unspecified) | > 100 | > 100 | – | > 100 | – | > 100 | > 100 | > 100 | – | – | – | – | – | – | – | – | – | – | – | –
CCOC(=O)C(=O)NCCCN1CCOCC1 | > 100 | – | – | – | > 100 | > 100 | > 100 | > 100 | > 100 | > 100 | > 100 | > 100 | > 100 | > 100 | > 100 | – | – | – | – | –
CCCN1C(=O)CSC1=Nc1ccc2cc3ccc(N=C4SCC(=O)N4CCC)cc3nc2c1 | – | > 100 | 0.0603 | – | > 100 | > 100 | > 100 | > 100 | – | – | – | – | – | – | – | > 100 | 18.2 | > 100 | > 100 | 95.4
C/C(N=Nc1nc2ccccc2[nH]1)=C1/C=CC=CN1O | > 100 | > 100 | > 100 | > 100 | > 100 | > 100 | > 100 | > 100 | – | – | – | – | – | – | – | – | – | – | – | –
COC(=S)OC1CC(n2cnc3c(N)ncnc32)OC1CO[Si](C)(C)C(C)(C)C (stereo unspecified) | – | 88.8 | – | 46.7 | – | 75.9 | 53.8 | > 100 | – | – | – | – | – | – | – | – | – | – | – | –
O=C1CC2(CCC(O)(c3cccs3)C(C(=O)c3cccs3)C2)C(=O)c2ccccc2N1 (stereo unspecified) | – | > 100 | – | > 100 | > 100 | > 100 | > 100 | – | – | – | – | – | – | – | – | – | – | – | – | –
COC1CC(CC2CCC(C)C(C(C)C(=O)O)O2)OC2(OC(C)(C3CCC(C)(C4OC(C5OC(O)(CO)C(C)CC5C)CC4C)O3)CC2C)C1C (stereo unspecified) | 0.591 | 2.41 | 30.5 | 4.99 | 49.2 | 17.7 | 5.22 | 5.67 | 68.3 | 12.9 | 1.01 | 2.18 | 1.03 | 10.4 | 11.5 | – | – | – | – | –
